Data from patent publication US9376391B2, “Difluoromethyl-nicotinic-tetrahydronaphthyl carboxamides as fungicides” (BAYER CROPSCIENCE AKTIENGESELLSCHAFT, priority 2012, dated 2016).

How the values were obtained:
Pyrenophora teres = experiment: In vivo preventive test on Pyrenophora teres (net blotch on barley)
Procedure: In Vivo Preventive Test on Pyrenophora teres (Net Blotch on Barley)
The active ingredients tested are prepared by homogenization in a mixture of acetone/tween/DMSO, and then diluted with water to obtain the desired active material concentration.
Barley plants (“Plaisant” variety), sown in starter cups on a 50/50 peat soil-pozzolana substrate and grown at 22° C., are treated at the 1-leaf stage (10 cm height) by spraying with the active ingredient prepared as described above. Plants, used as controls, are treated with the mixture of acetone/tween/DMSO/water not containing the active material.
After 24 hours, the plants are contaminated by spraying the leaves with an aqueous suspension of Pyrenophora teres spores (12 000 spores per ml). The spores are collected from a 12-day-old culture. The contaminated barley plants are incubated for 48 hours at 20° C. and at 100% relative humidity, and then for 12 days at 20° C. at 70-80% relative humidity.
Grading (% of efficacy) is carried out 14 days after the contamination, in comparison with the control plants. plants.

Uromyces appendiculatus = experiment: In vivo preventive test on Uromyces appendiculatus (bean rust); details: 500 ppm, preventive spray, bean plants, grading 11 days after contamination
Procedure, shortened: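 'Saxa' bean plants at the 2-leaf stage were sprayed with compound and inoculated 24 h later with U. appendiculatus spores (150 000 spores per ml). Plants were incubated 24 h at 20 °C and 100% RH, then 10 days at 20 °C and 70–80% RH. Percent efficacy versus solvent-treated controls was graded 11 days post-inoculation.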

## CC1CC(C)(C)c2cccc(NC(=O)c3cccnc3C(F)F)c21 (stereo not shown) [Example 1]
Pyrenophora teres; dose 100 ppm of active ingredient, comparison with known compounds
  protection (in words): total protection
Pyrenophora teres; dose 100 ppm, comparison with known compounds, same conditions
  Efficacy: 100%
Pyrenophora teres; dose 500 ppm, barley, spray, graded 14 days after contamination vs control plants
  Eff. %: 100%
Uromyces appendiculatus
  Eff. %: 100%
